We go through four substances from US20100286069A1, “CATIONIC PEPTIDE FOR DELIVERING AN AGENT INTO A CELL” (priority 2007, published 2010).

Series [1] is described as follows: Zeta potential of pure peptide. The class given is physicochemical.
Series [2] deals with plasmid DNA. In words: Agarose gel electrophoresis DNA binding assay (Example 1). As to conditions: 10 mM PBS pH 7.0; for N/P ratio at which bulk electrophoretic migration of DNA is retarded: N/P = arginine residues to DNA phosphorus. The protocol: DNA binding and protection assays: Agarose gel electrophoresis was conducted to study the DNA binding ability of the peptides. The peptide/DNA complexes containing 2.5 μg of DNA per 50 μL of solution were formed at various N/P ratios. The complex solution (10 μL), together with 2 μL of loading dye (Promega), were then loaded into the wells of a 1.0 wt % agarose gel preloaded with 2 μL of ethidium bromide (per 50 mL of gel solution), and electrophoresed at 80 V for 50 minutes prior to imaging (ChemiGenius Q, Syngene).
To evaluate the ability of the peptides to fully condense DNA so as to prevent its premature degradation en route to the nuclei of cells, plasmid DNA encoding the 6.4 kb firefly luciferase (pCMV-luciferase VR1255_C) driven by the cytomegalovirus (CMV) promoter (Carl Wheeler, Vical, U.S.A.) was bound to each peptide in 10 mM phosphate-buffered saline (PBS, pH 7.0) at various N/P ratios (defined here as the molar ratio of arginine residues in the peptide to the phosphorus content in DNA). Gel electrophoresis assays were then performed.

A short description of series [3]: MTT cytotoxicity assay in 4T1 (Example 1). The class given is cell-based. Particulars: mouse, 4T1 cells; read-out: cells viable at peak luciferase expression. The protocol: Cytotoxicity assay: Cells were seeded onto 96-well plates at a density of 6-10×10^3 cells/well. After 24 hours, all media were replaced with fresh ones and 10 μL of sample was introduced into each well. The sample consisted of either pure peptide or […] dissolved in the medium at the desired concentration. After 4 hours, all media were aspirated and replaced with fresh ones. Cytotoxicity analysis was carried out 3 days later by first replacing all wells with fresh media and adding 20 μL of MTT (5 mg/mL in PBS). After incubating for another 3 hours, all wells were carefully aspirated and replaced with 0.15 mL of DMSO to dissolve the internalized purple formazan crystals. The solution was homogenised and the relative colour intensity was measured with a microplate reader (PowerWave X, Bio-Tek Inc.). A test wavelength of 550 nm and a reference wavelength of 690 nm were used. Cell viability was represented by the average of (absorbance550 nm−absorbance690 nm) of the sample expressed as a percentage of the intensity of the controls ±standard deviation. Each data point was repeated at least 8 times.
For complexes of F, I and W, a peptide concentration of 0.02 and 0.10 mg/mL will approximately correspond to N/P ratio 5 and 25, respectively. For H, a peptide concentration of 0.03 and 0.09 mg/mL will approximately correspond to N/P ratio 10 and 30. […]
Background: Tetrazolium assays rely on reduction of a dye to a coloured formazan, in cell work by metabolically active cells.

Series [4] deals with subcutaneous 4T1 breast tumors. In words: In vivo luciferase expression in 4T1 tumor-bearing mice. How it is done:
In vivo luciferase expression: Female Balb/c mice (Centre for Animals Resources, National University of Singapore) weighing 18-20 g were subcutaneously injected with 0.1 mL of serum-free RPMI 1640 containing 4×10^5 4T1 cells. A tumor was then allowed to develop in each mouse for 10-12 days. PEI and different formulations of I/DNA complexes were prepared as above, and 30 μl of sample containing 4 μg of DNA was injected directly into each tumor. The tumor tissues were harvested two days later. To analyse for luciferase activity, each tumor was first thoroughly homogenised in lysis buffer, followed by two further freeze-thaw cycles. The mixture was then centrifuged and assayed for its luciferase activity as described above. Expression level was given as RLU/mg protein ±standard deviation of at least 4 mice.
Finally, the in vivo gene transfection capacity of the peptides was evaluated by performing luciferase expression experiments with peptide I on mice bearing subcutaneous 4T1 breast tumors. […] This may be because the amount of DNA being delivered by the supernatant and sediment formulations was smaller. The large DNA complexes might also not be uniformly distributed in the tumor, limiting the cellular uptake of the large complexes. […]

In series [5] the test system is 4T1 cells. In words: In vitro luciferase expression in 4T1 (Example 1). In kind it is cell-based, mouse. How it is done: (§1) In vitro luciferase and GFP expression: HEK 293 and HepG2 cells were maintained in Dulbecco's modified Eagle's medium (DMEM) and 4T1 cells were cultured in RPMI 1640 growth medium at 37° C. with 5% CO2. All growth media used were completed with 10% fetal bovine serum, 100 μg/mL of streptomycin and 100 U/ml of penicillin.
(§2) One day before transfection, cells were seeded at a density that depended on the cell line and type of experiments. For the luciferase transfection assay, 0.5 mL of medium containing 5-8×10^4 cells were seeded into each well of a 24-well plate, while 1.0 mL of medium containing 1.8-2.0×10^5 cells were pipetted into each well of a 12-well plate for GFP expression. Peptide/DNA complexes were formed at various N/P ratios in 10 mM PBS (pH 7.0) by dripping equivolume solutions of peptide into DNA. The mixture was then vortexed for ˜10 seconds and left to stand for at least 30 minutes before usage. Meanwhile, all media were replaced with fresh ones. […]
(§3) Analysis for luciferase expression was carried out after 3 days. […] The relative light unit (RLU) was measured with a luminometer (Lumat LB 9507, EG&G Berthold) and normalized against the protein concentration as measured with a bicinchoninic acid protein assay kit (Pierce). Luciferase activity was finally expressed as RLU/mg protein ±standard deviation of at least 4 samples. […]

Series [6] concerns DNA. In words: Kinetics of DNA capture (PicoGreen). The class given is binding. The protocol: Upon condensation of the DNA, however, PicoGreen becomes excluded resulting in a drop in florescent intensity. Making use of this behavior, the kinetics of the DNA capturing process was traced and quantified. At time=0, the peptide solution was dripped into the DNA solution and vortexed for ˜10 seconds. At appropriate time intervals, 10 μL of the complex solution was taken out and mixed with 990 μL of PicoGreen working solution (diluted 400 times from its stock solution with TE buffer, pH 7.3). The fluorescence emission spectrum was then recorded with a Fluorolog LFI 3751 fluorescence spectrometer (Jobin Yvon Horiba). The excitation wavelength used was 480 nm and the silts were set to 4 nm. The fluorescence area intensity at any time point expressed as a percentage of the fluorescence intensity obtained with the initial concentration of DNA (before mixing with peptide) was used to reflect the concentration of uncaptured/loosely captured DNA. A profile was plotted to trace the temporal evolution of the DNA capturing process. Blanks and background were corrected for in all calculations.
To further understand the efficiency and kinetics of DNA capture by the peptides, PicoGreen was used as a sensitive fluorescence probe. […] This behavior can be employed to trace the temporal evolution of free/loosely bound DNA in solution.

The test system of series [7] is HepG2 cells. The series is described as follows: In vitro luciferase expression in HepG2 (Example 1). The class given is cell-based, human. How it is done: as §1, §2, §3
Series [8] has as its system HEK293 cells. The series is described as follows: In vitro luciferase expression in HEK293 (Example 1). The class given is cell-based, human. How it is done: as §1, §2, §3
The subject of series [9] is HEK293 cells. The series is described as follows: GFP transfection assay in HEK293. In kind it is cell-based, human. The protocol: as §1, §2
For the GFP transfection assay, cells were harvested after 2 days. […] The percentage of cells expressing GFP was then determined using a flow cytometer (FACSCalibur, Becton Dickinson) from 10,000 events and reported as a mean±standard deviation of at least 4 samples. […]

Series [10] concerns HEK293, HepG2 and 4T1 cells. In words: In vitro luciferase expression, all three cell lines (Example 1). In kind it is cell-based, human, mouse. As to conditions: all cell lines tested. The protocol:
as §1, §2, §3

Where no end group is shown, it is not given here. Bounds are passed on as bounds.

As for “IIIIIHHHHRRRRRRRR-NH2 [I, NH2—I5H4R8—CONH2]”, the “zeta potential of pure peptide” value in series [1] is given as 15.8±0.2 mV. In series [2], the “N/P ratio from which ethidium bromide is completely excluded from the condensed DNA” value was at least 5 and the “N/P ratio at which bulk electrophoretic migration of DNA is retarded” value was 2. The viability at 4 h in series [3] was around 90%. Besides, the “gene expression in mouse breast cancer model compared with PEI” value in series [4] is “much more efficiently than PEI”. The “luciferase expression level compared among the peptides” value in series [5] (4T1) is “optimal”. For the same substance, the “peak luciferase expression level, times higher than PEI” value in series [5] (4T1 cells, PEI branched Mw 25,000) was 6.4 times. Moreover, the “quenching of PicoGreen fluorescence compared with H” value in series [6] is “to a greater extent”.

For “FFFFFHHHHRRRRRRRR-NH2 [F, NH2—F5H4R8—CONH2]”, in [7], the “luciferase expression level compared among the peptides” value is given as “highest luciferase expression level” and the “luciferase expression level, times that of PEI” value is 0.2 times. In series [8], the “luciferase expression level compared among the peptides” value is “highest luciferase expression level” and the “luciferase expression level, times that of PEI” value is given as 0.8 times. Besides, the “proportion of cells transfected with the GFP gene, comparison” value in [9] is on record as “transfected more HEK293 cells with the GFP gene than H”.

Turning to “NH2—W5H4R8—CONH2 (H-WWWWWHHHHRRRRRRRR-NH2)”, in series [10], the “gene expression level compared among the peptides” value is “lowest gene expression level”.

Take NH2—H4R8—CONH2: in [1], the “zeta potential of pure peptide” value is reported as 8.0±0.2 mV. Besides, the “N/P ratio at which bulk electrophoretic migration of DNA is retarded” value in series [2] amounted to 5.
